Reference: patent publication US9920061B2, “Imidazo[1,5-A]pyrimidinyl carboxamide compounds and their use in the treatment of medical disorders” (Lysosomal Therapeutics Inc., priority 2016, dated 2018)
Converted amounts (≈) assume the structure as drawn.

Tests used:
[1] = target: T1, glucocerebrosidase (Gcase) (Homo sapiens, UniProt P04062); assay: Glucocerebrosidase (Gcase) activation assay, 4-methylumbelliferyl-beta-D-glucopyranoside substrate, with saposin C; assay type: biochemical; settings: for activation at 0.1 µM: test compound at 0.1 μM, read-out: Percent Gcase Activation, 0.1 μM Test Compound; for activation at 1 µM: test compound at 1.0 μM, read-out: Percent Gcase Activation, 1 μM Test Compound
T1 sequence (P04062 40-536): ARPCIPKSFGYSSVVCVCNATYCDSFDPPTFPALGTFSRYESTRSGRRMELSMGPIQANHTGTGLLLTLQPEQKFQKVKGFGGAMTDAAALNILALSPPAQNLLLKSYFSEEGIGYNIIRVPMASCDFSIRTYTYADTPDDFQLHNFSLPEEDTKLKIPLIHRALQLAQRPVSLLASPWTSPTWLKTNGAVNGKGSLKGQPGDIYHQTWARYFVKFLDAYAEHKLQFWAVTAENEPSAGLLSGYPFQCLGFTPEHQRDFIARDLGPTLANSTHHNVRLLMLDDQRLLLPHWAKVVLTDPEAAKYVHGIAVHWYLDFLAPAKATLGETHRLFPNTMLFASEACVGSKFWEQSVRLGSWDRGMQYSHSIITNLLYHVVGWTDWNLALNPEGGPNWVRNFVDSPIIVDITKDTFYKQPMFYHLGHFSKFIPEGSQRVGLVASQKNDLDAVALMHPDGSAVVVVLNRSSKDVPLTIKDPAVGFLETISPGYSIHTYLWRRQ
Method in brief: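 Micellar buffer (176 mM K2HPO4/50 mM citric acid, pH 4.7; 0.32 mM triton, 0.37 mol % PS) holding 10 nM GCase and 100 nM saposin C, pre-incubated with compound 30 min at room temperature. Substrate final 2 mM before mixing; 15 min reaction, glycine pH 12.5 stop, fluorescence 365/440 nm. Screened at 1.0 and 0.1 μM; 8-point, 3-fold dose response.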

[2] = Compound solubility in water; assay type: physicochemical; settings: in water

| Structure (SMILES) | activation at 0.1 µM [1] [%] | activation at 1 µM [1] [%] | solubility [2] [µg/mL] |
| --- | --- | --- | --- |
| Cc1cc(-c2csc(C#N)c2)nc2c(C(=O)NC(C3CC3)C(F)(F)F)ncn12 (stereo not drawn) [IV-87] | > 20 | > 60 | 9.2 (≈ 22.7 µM) |
| Cc1cc(-c2ccsc2C#N)nc2c(C(=O)NC(C3CC3)C(F)(F)F)ncn12 (stereo not drawn) [IV-88] | > 20 | > 60 | 0.3 (≈ 0.74 µM) |
| Cc1cc(N2CCCN(C(C)C)C2=O)nc2c(C(=O)NC(C3CC3)C(F)(F)F)ncn12 (stereo not drawn) [IV-89] | < 10 | < 30 | 25.6 (≈ 58.4 µM) |
| CCc1cc(N2CCN(CC(F)(F)F)C2=O)nc2c(C(=O)NC(C3CC3)C(F)(F)F)ncn12 (stereo not drawn) [IV-90] | 10 to 20 | > 60 | 25.6 (≈ 53.5 µM) |
| Cc1cc(C#N)c(-c2cc(C)n3cnc(C(=O)NC(C4CC4)C(F)(F)F)c3n2)o1 (stereo not drawn) [IV-92] | > 20 | > 60 | 0.3 (≈ 0.744 µM) |
| Cc1sc(C#N)cc1-c1cc(C)n2cnc(C(=O)NC(C3CC3)C(F)(F)F)c2n1 (stereo not drawn) [IV-95] | > 20 | > 60 | 2.5 (≈ 5.96 µM) |
| Cc1cc(C(=O)Nc2ccccc2)nc2c(C(=O)NC(C3CC3)C(F)(F)F)ncn12 (stereo not drawn) [IV-100] | < 10 | < 30 | 6.2 (≈ 14.9 µM) |
| Cc1cc(-c2cccc(OC(F)(F)F)n2)nc2c(C(=O)N[C@@H](C)C3CC3)ncn12 [IV-101] | > 20 | > 60 | 1.5 (≈ 3.7 µM) |
| CCOc1cccc(-c2cc(C)n3cnc(C(=O)NC(C4CC4)C(F)(F)F)c3n2)n1 (stereo not drawn) [IV-102] | > 20 | > 60 | 7.8 (≈ 18.6 µM) |
| COc1ccc(F)c(-c2cc(C)n3cnc(C(=O)NC(C)(C)C)c3n2)c1 [IV-103] | 10 to 20 | > 60 | 0.7 (≈ 1.96 µM) |
| COc1ccc(F)c(-c2cc(C)n3cnc(C(=O)NC(C)C(F)(F)F)c3n2)c1 (stereo not drawn) [IV-104] | > 20 | > 60 | 0.7 (≈ 1.77 µM) |
| CCc1cc(-c2ccns2)nc2c(C(=O)NC(C)(C)C)ncn12 [IV-105] | 10 to 20 | > 60 | 15.9 (≈ 48.3 µM) |
| CCc1cc(-c2ccsn2)nc2c(C(=O)NC(C3CC3)C(F)(F)F)ncn12 (stereo not drawn) [IV-106] | > 20 | > 60 | 0.6 (≈ 1.52 µM) |
| CCc1cc(N2CCC(C)(C)C2=O)nc2c(C(=O)NC(C3CC3)C(F)(F)F)ncn12 (stereo not drawn) [IV-107] | 10 to 20 | > 60 | 29.6 (≈ 69.9 µM) |
| Cc1cc(-c2cc(F)ccc2C#N)nc2c(C(=O)NC(C3CC3)C(F)(F)F)ncn12 (stereo not drawn) [IV-108] | > 20 | > 60 | 0.7 (≈ 1.68 µM) |
| Cc1cc(-c2ccccc2C#N)nc2c(C(=O)NC(C)(C)C)ncn12 [IV-109] | < 10 | 30 to 60 | 2.5 (≈ 7.5 µM) |
| Cc1cc(-c2cc(F)cc(C#N)c2)nc2c(C(=O)NC(C3CC3)C(F)(F)F)ncn12 (stereo not drawn) [IV-110] | > 20 | > 60 | 1.2 (≈ 2.88 µM) |
| Cc1cc(-c2cc(F)cc(C#N)c2)nc2c(C(=O)NC(C)(C)C)ncn12 [IV-111] | 10 to 20 | > 60 | 0.9 (≈ 2.56 µM) |
| Cc1cc(-c2cccc(C(N)=O)c2)nc2c(C(=O)NC(C3CC3)C(F)(F)F)ncn12 (stereo not drawn) [IV-112] | 10 to 20 | > 60 | 1.1 (≈ 2.64 µM) |
| Cc1cc(N2CCCC(F)(F)C2)nc2c(C(=O)NC(C3CC3)C(F)(F)F)ncn12 (stereo not drawn) [IV-113] | > 20 | > 60 | 17.2 (≈ 41.2 µM) |
| Cc1cc(Oc2cccnc2)nc2c(C(=O)N[C@@H](C)C3CC3)ncn12 [IV-114] | < 10 | < 30 | 32.8 (≈ 97.2 µM) |
| Cc1cc(Oc2ccncc2)nc2c(C(=O)N[C@@H](C)C3CC3)ncn12 [IV-115] | < 10 | < 30 | 29.6 (≈ 87.7 µM) |
| Cc1cc(-c2cccc(-c3ncccn3)c2)nc2c(C(=O)NC(C3CC3)C(F)(F)F)ncn12 (stereo not drawn) [IV- 61] | > 20 | > 60 | 1.1 (≈ 2.43 µM) |
